{"source": "patent US10813896B2", "about": "“Treatment of intrahepatic cholestatic diseases” (CymaBay Therapeutics, Inc., priority 2017, dated 2020)", "key": {"[1]": {"test_system": "subjects with mixed dyslipidemia", "conditions": "8 weeks, cited from earlier work"}, "[2]": {"test_system": "subjects with an intrahepatic cholestatic disease such as PSC", "experiment": "Trial in PSC", "type": "in vivo, human", "conditions": "1, 2, 5, and 10 mg/day oral", "description": "Subjects are permitted their usual other medications, including UDCA. […] At each visit, after a 12-hour fast, blood is drawn and urine collected; and a standard metabolic panel, complete blood count, and standard urinalysis are performed. Blood is analyzed for TC, HDL-C, TG, VLDL-C, LDL-C, and apolipoprotein B, for liver function markers such as total and bone-specific ALP, for GGT, and also for total and conjugated bilirubin. The subjects also maintain health diaries, which are reviewed at each visit."}, "[3]": {"experiment": "Exposure study in hepatic impairment (Child-Pugh classes B and C)", "type": "in vivo, human", "conditions": "subjects with significant hepatic impairment", "from_the_text": "These amounts represent an average daily dose, and not necessarily an amount given at a single dose. Dosing may be as frequent as more than once/day (where the amount, or daily dose, will be divided between the number of administrations per day), but will more typically be once/day (where the amount is given in a single administration). Optionally, particularly in cases of significant hepatic impairment, the dosing may be less frequent than once/day, such as between once/week and every other day, for example once/week, twice/week (especially with the doses at least three days apart), three times/week (especially with the doses at least two days apart), or every other day; so that, as an example, a subject may receive 5 mg twice/week for an amount (daily dose) of 1.4 mg/day."}, "[4]": {"test_system": "subjects with PBC", "experiment": "High dose trial in PBC (NCT02609048)", "type": "in vivo, human", "conditions": "for cases of asymptomatic increases in transaminases: reversible on cessation of treatment, no elevation of TBIL; for mean decrease from baseline in ALP: last observation carried forward, at least two weeks of treatment; for reduction of LDL-C: after two weeks of dosing", "from_the_text": "The trial subjects were adult, male or female, with a diagnosis of PBC by at least two of the following three criteria: (a) a history of alkaline phosphatase (ALP) above the upper limit of normal (ULN) for at least six months, (b) positive anti-mitochondrial antibody titers >1/40 on immunofluorescence or M2 positive by enzyme linked immunosorbent assay or positive PBC-specific antinuclear antibodies, and (c) documented liver biopsy result consistent with PBC, on a stable and recommended dose of UDCA for the past twelve months or UDCA intolerant, and ALP≥1.67×ULN. Exclusion criteria included AST or ALT≥3×ULN, total bilirubin (TBIL)≥2×ULN, autoimmune hepatitis or a history of chronic viral hepatitis, PSC, the current use of fibrates or simvastatin, the use of colchicine, methotrexate, azathioprine, or systemic steroids in the previous two months, the use of an experimental treatment for PBC, and the use of an experimental or unapproved immunosuppressant. The primary study endpoint was decrease in ALP, and the secondary endpoint was the responder rate for subjects achieving ALP<1.67×ULN and total bilirubin within normal limit, and >15% decrease in ALP. Additional secondary endpoints were changes in GGT, TBIL, and 5′-nucleotidase, which are other recognized biochemical markers of cholestasis. […] During the study, three cases of asymptomatic increases in transaminases were observed (two in the 200 mg and one in the 50 mg groups). All three were reversible on cessation of treatment and were not accompanied by elevation of TBIL. Since the study had already shown a clear efficacy signal, the study was discontinued. […] According to the original statistical plan, changes in ALP were calculated using the last observation carried forward. The mean decreases from baseline in ALP for the 50 mg/day and 200 mg/day dose groups were 57% and 62%, respectively, compared with 0.37% for placebo (p<0.0001 for both). The responder rates for the placebo, 50 mg/day, and 200 mg/day groups were 10%, 67% and 100%, respectively, despite the baseline ALP levels being different at 239, 313, and 280 U/L. The p-values comparing the responder rates for the 50 mg/day and 200 mg/day groups with placebo were 0.020 and 0.0004 (Fisher's Exact Test), respectively."}, "[5]": {"test_system": "subjects with PBC", "experiment": "Low-dose trial in PBC (NCT02955602)", "type": "in vivo, human", "description": "In the main study, running for 12 weeks, subjects were to receive either 2, 5, or 10 mg/day; while in an extension study, running for an additional 40 weeks, subjects in the 2 mg/day group were allowed to continue at the 2 mg/day dose or shift to either 5 or 10 mg/day, subjects in the 5 mg/day group were allowed to continue at the 5 mg/day dose or shift to 10 mg/day, and subjects in the 10 mg/day group were allowed to continue at the 10 mg/day dose or shift to 5 mg/day. At baseline (the mean of the screening values and the value at day 1), the subjects had the following values, with numbers in parentheses denoting standard deviations: The study has now been analyzed through 26 weeks: the 12 weeks of the main study and 14 weeks of the extension study."}, "[6]": {"experiment": "Preclinical study of elimination", "type": "in vivo"}, "[7]": {"target": "T1, PPARα (Homo sapiens, UniProt Q07869)", "T1 sequence (Q07869 1-468)": "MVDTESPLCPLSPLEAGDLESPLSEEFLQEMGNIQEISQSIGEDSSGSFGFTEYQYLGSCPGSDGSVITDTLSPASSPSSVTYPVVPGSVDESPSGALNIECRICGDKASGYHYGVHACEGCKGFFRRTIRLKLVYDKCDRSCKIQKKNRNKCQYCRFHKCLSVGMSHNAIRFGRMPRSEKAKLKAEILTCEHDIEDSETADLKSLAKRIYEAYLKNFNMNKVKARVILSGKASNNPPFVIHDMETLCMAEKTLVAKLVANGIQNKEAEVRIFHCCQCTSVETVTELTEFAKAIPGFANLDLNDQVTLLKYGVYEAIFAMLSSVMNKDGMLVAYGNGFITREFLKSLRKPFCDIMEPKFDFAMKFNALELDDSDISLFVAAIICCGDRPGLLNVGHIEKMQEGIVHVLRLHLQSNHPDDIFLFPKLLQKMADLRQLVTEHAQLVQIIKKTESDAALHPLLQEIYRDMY", "conditions": "PPARδ vs PPARα; cited from earlier work"}, "[8]": {"conditions": "combined 5 mg/day and 5 to 10 mg/day group, 26 weeks"}, "[9]": {"conditions": "through 26 weeks, 2, 5, 10 mg/day"}, "[10]": {"conditions": "seladelpar 50 or 100 mg alone or combined with ATV 20 mg, once daily oral, compared to placebo"}}, "note": "Where two headings read alike, the source gives them in different places."}
{"smiles": "CC(C)c1c(C(=O)Nc2ccccc2)c(-c2ccccc2)c(-c2ccc(F)cc2)n1CC[C@@H](O)C[C@@H](O)CC(=O)O", "note": "[ATV, atorvastatin, reference compound]", "values": [{"measurement": "increase of GGT", "setting": "[1]; ATV 20 mg group", "result": 2, "unit": "%"}, {"measurement": "reduction of ALP", "setting": "[1]; ATV 20 mg group", "result": 6, "unit": "%"}]}
{"smiles": "CCO[C@H](COc1ccc(C(F)(F)F)cc1)CSc1ccc(OCC(=O)O)c(C)c1", "note": "[seladelpar, [4-({(2R)-2-ethoxy-3-[4-(trifluoromethyl)phenoxy]propyl}sulfanyl)-2-methylphenoxy] acetic acid]", "values": [{"measurement": "improvement in disease, manifested by decrease in ALP and GGT", "setting": "[2]", "result": "improvement in their disease"}, {"measurement": "area-under-the-curve exposure for seladelpar and two of its three principal metabolites", "setting": "[3]", "result": "increase"}, {"measurement": "maximum plasma concentration of seladelpar", "setting": "[3]", "result": "significant increase"}, {"measurement": "cases of asymptomatic increases in transaminases", "setting": "[4]; 50 mg group", "result": "one"}, {"measurement": "responder rate (ALP<1.67×ULN, total bilirubin within normal limit, >15% decrease in ALP)", "setting": "[4]; 50 mg/day", "result": 67, "unit": "%"}, {"measurement": "mean decrease from baseline in ALP", "setting": "[4]; 50 mg/day oral", "result": 57, "unit": "%"}, {"measurement": "reduction of LDL-C", "setting": "[4]; 50 mg/day", "result": 16, "unit": "%"}, {"measurement": "cases of asymptomatic increases in transaminases", "setting": "[4]; 200 mg group", "result": "two"}, {"measurement": "responder rate (ALP<1.67×ULN, total bilirubin within normal limit, >15% decrease in ALP)", "setting": "[4]; 200 mg/day", "result": 100, "unit": "%"}, {"measurement": "mean decrease from baseline in ALP", "setting": "[4]; 200 mg/day oral", "result": 62, "unit": "%"}, {"measurement": "reduction of LDL-C", "setting": "[4]; 200 mg/day", "result": 26, "unit": "%"}, {"measurement": "adverse events of pruritus", "setting": "[4]; on treatment, 50 and 200 mg/day", "result": "no adverse events of pruritus were reported on treatment"}, {"measurement": "mean reduction in ALP", "setting": "[5]; 2 mg/day, 12 weeks", "result": 21, "unit": "%"}, {"measurement": "mean reduction in ALT", "setting": "[5]; 2 mg/day, 12 weeks", "result": 9, "unit": "%"}, {"measurement": "mean reduction in ALP", "setting": "[5]; 5 mg/day, 12 weeks", "result": 33, "unit": "%"}, {"measurement": "mean reduction in ALT", "setting": "[5]; 5 mg/day, 12 weeks", "result": 28, "unit": "%"}, {"measurement": "mean reduction in ALP", "setting": "[5]; 5 mg/day, 26 weeks", "result": 45, "unit": "%"}, {"measurement": "mean reduction in ALT", "setting": "[5]; 10 mg/day group, 26 weeks", "result": 43, "unit": "%"}, {"measurement": "subjects with ALP≤1.67×ULN", "setting": "[5]; 10 mg/day group, 26 weeks", "result": 79, "unit": "%"}, {"measurement": "subjects with ALP≤ULN", "setting": "[5]; 10 mg/day group, 26 weeks", "result": 32, "unit": "%"}, {"measurement": "subjects with TBIL≤ULN", "setting": "[5]; 10 mg/day group, 26 weeks", "result": 89, "unit": "%"}, {"measurement": "subjects with a decrease in ALP of ≥15%", "setting": "[5]; 10 mg/day group, 26 weeks", "result": 89, "unit": "%"}, {"measurement": "mean reduction in ALP", "setting": "[5]; 10 mg/day, 12 weeks", "result": 45, "unit": "%"}, {"measurement": "mean reduction in ALT", "setting": "[5]; 10 mg/day, 12 weeks", "result": 35, "unit": "%"}, {"measurement": "mean reduction in ALP", "setting": "[5]; 10 mg/day, 26 weeks", "result": 43, "unit": "%"}, {"measurement": "mean reduction in ALP", "setting": "[5]; 5 to 10 mg/day, 26 weeks", "result": 43, "unit": "%"}, {"measurement": "mean reduction in ALT", "setting": "[5]; [8]", "result": 40, "unit": "%"}, {"measurement": "subjects with ALP≤1.67×ULN", "setting": "[5]; [8]", "result": 68, "unit": "%"}, {"measurement": "subjects with ALP≤ULN", "setting": "[5]; [8]", "result": 26, "unit": "%"}, {"measurement": "subjects with TBIL≤ULN", "setting": "[5]; [8]", "result": 95, "unit": "%"}, {"measurement": "subjects with a decrease in ALP of ≥15%", "setting": "[5]; [8]", "result": 95, "unit": "%"}, {"measurement": "signals for drug-induced pruritus", "setting": "[5]; [9]", "result": "no signals for drug-induced pruritus"}, {"measurement": "transaminase safety signals", "setting": "[5]; [9]", "result": "No transaminase safety signals"}, {"measurement": "serious adverse events", "setting": "[5]; through 26 weeks, all doses, all deemed unrelated to seladelpar", "result": 6}, {"measurement": "adverse events leading to seladelpar discontinuation", "setting": "[5]; through 26 weeks, all doses, both deemed unrelated to seladelpar", "result": 2}, {"measurement": "concentration of the drug in bile", "setting": "[6]", "result": "concentrated in bile"}, {"measurement": "main route of elimination", "setting": "[6]", "result": "through bile"}, {"measurement": "specificity compared with PPARα", "setting": "[7]", "result": "> 600", "unit": "fold"}, {"measurement": "reduction of LDL", "setting": "[1]; [10]", "result": "18-43%"}, {"measurement": "reduction of apolipoprotein B-100", "setting": "[1]; [10]", "result": "20-38%"}, {"measurement": "reduction of free fatty acids", "setting": "[1]; [10]", "result": "16-28%"}, {"measurement": "reduction of high-sensitivity C-reactive protein (hs-CRP)", "setting": "[1]; [10]", "result": "43-72%"}, {"measurement": "reduction of non-HDL-C", "setting": "[1]; [10]", "result": "18-41%"}, {"measurement": "reduction of triglycerides (TGs)", "setting": "[1]; [10]", "result": "26-30%"}, {"measurement": "rise of HDL-C", "setting": "[1]; [10]", "result": "1-12%"}, {"measurement": "number of patients with the metabolic syndrome and a preponderance of small LDL particles", "setting": "[1]; seladelpar alone and in combination with ATV", "result": "reduced the number of patients with the metabolic syndrome and a preponderance of small LDL particles"}, {"measurement": "reduction of ALP", "setting": "[1]; seladelpar groups", "result": "32-43%"}, {"measurement": "reduction of GGT", "setting": "[1]; seladelpar groups", "result": "24-28%"}]}
